# Assay results: patent US5563125A, “5'-deoxy-5'-(substituted)alkylthioribose compounds and their pharmaceutical compositions” (priority 1992, dated 1996)
# Like-named read-outs stand apart in the source and are kept apart here.
# Experiments:
# [1] = test system: T. b. brucei procyclic trypanosomes (Lab 110 EATRO strain); test: In vitro antitrypanosomal activity, procyclic trypanosomes in T2 medium; type: cell-based, Trypanosoma brucei brucei; conditions: 3-5 days
# Description: The antitrypanosomal effects of HETA and other nucleosides were examined in the Lab 110 EATRO strain of T. b. brucei in culture.
# Cells were cultured as described in Bacchi et al. Exp. Parasitol. 68, 392, 1989. Cells were then grown in the presence of the compounds for 3-5 days. Drugs were filtered, sterilized and added aseptically. Control cells achieved a maximum density of 1.5-3.5×10^7 /ml. Hemocytometer counts were made daily and the results were expressed as a percent of control growth. IC50 plots were obtained by graphing log (drug) vs. percent growth inhibition.
# Trypanocidal Activity of MTA and MTR Analogs
# against T. b. brucei procyclic trypanosomes in T2 medium.
# [2] = test system: MOLT-4 cells (MTA phosphorylase-containing); test: Growth inhibition of MOLT-4 cells; type: cell-based, human; conditions: MOLT-4, 96 h
# Description: (§1) L1210, L5178Y and MOLT-4 cell lines were grown in RPMI 1640 and 10% Nu Serum (Collaborative Research Inc., Lexington, Mass.) and CCRF-CEM cells were grown in 10% Horse Serum (Gibco Laboratories, Grand Island, N.Y.) and maintained as previously described for suspension cultures by Pera et al. in Cancer Res. 46, 1148, 1986. Cell cultures (0.3×10^5 cells/ml) were treated with each compound at 0.1 to 1000 μM to determine the concentration that inhibited growth by 50% (IC50) at 48 hr for the L1210 and L5178Y cells and at 96 hr for the CCRF-CEM and MOLT-4 cells. The incubation times allowed approximately 4 cell doublings in each cell line. All compounds were freshly prepared prior to treatment by dissolving in DMSO and diluting in serum-free media. Cells were counted by electron particle counting (Model XF' Coulter Counter; Coulter Electronics, Hialeah, Fla.).
# (§2) For each compound, the concentrations required to inhibit cell growth by 50% (IC50 values) are shown in Table 7 for two murine leukemic cell lines, L1210 and L5178Y [MTA phosphorylase-deficient and MTA phosphorylase-containing, respectively] and two human leukemic cell lines, CCRF-CEM and MOLT-4 [MTA phosphorylase-deficient and MTA phosphorylase-containing, respectively]. ETA, MFETA, HETA and PTA had lower IC50 values in the L5178Y cells than in the L1210 cells. […] This differential is consistent with the possibility that, in L5178Y cells, MFETA is cleaved by MTA phosphorylase to the growth inhibitory metabolite, 5-monofluoroethylthioribose-1-phosphate (MFETR-1-P).
# [3] = test system: CCRF-CEM cells (MTA phosphorylase-deficient); test: Growth inhibition of CCRF-CEM cells; type: cell-based, human; conditions: 96 h
# Description: as §1, §2
# [4] = biological target: T1, T. b. brucei MTA phosphorylase (Trypanosoma brucei, UniProt Q57XS4); test: T. b. brucei MTA phosphorylase substrate assay; type: biochemical; conditions: for Percent Control Activity: relative to MTA
# T1 construct: MTA or analogs as substrates
# Description: ^a MTA phosphorylase was assayed according to Ghoda et al., using 200
# μM MTA (saturating) or analogs as substrates. Specific activities of
# the dialyzed enzyme preparations were with 50 mM PO4, 104.97 n
# moles/mg protein/h; without PO4, 28.27 n moles/mg protein/h. Results
# are expressed as percent activity compared to as substrate with and
# without PO4, respectively.
# [5] = test system: L1210 cells (MTA phosphorylase-deficient); test: Growth inhibition of L1210 cells; type: cell-based, mouse; conditions: L1210, 48 h
# Description: as §1, §2
# [6] = biological target: T2, Mouse Liver MTA Phosphorylase (Mus musculus, UniProt Q9CQ65); test: Mouse liver MTA phosphorylase substrate/inhibitor assay; type: biochemical; conditions: for Substrate (% Control): substrate activity relative to MTA
# T2 sequence (Q9CQ65 1-283): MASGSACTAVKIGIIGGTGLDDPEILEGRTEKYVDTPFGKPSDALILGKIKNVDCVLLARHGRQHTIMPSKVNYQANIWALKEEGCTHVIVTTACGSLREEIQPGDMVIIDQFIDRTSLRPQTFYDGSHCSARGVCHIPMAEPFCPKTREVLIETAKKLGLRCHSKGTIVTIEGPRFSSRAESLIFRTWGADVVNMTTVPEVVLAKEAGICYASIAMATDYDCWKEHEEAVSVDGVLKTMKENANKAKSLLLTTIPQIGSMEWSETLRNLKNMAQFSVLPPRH
# Description: ^a MTA phosphorylase activity was assayed as described in Sufrin et
# [7] = test system: L5178Y cells (MTA phosphorylase-containing); test: Growth inhibition of L5178Y cells; type: cell-based, mouse; conditions: 48 h
# Description: as §1, §2
# [8] = test system: Trichomonas vaginalis ATCC 50143 (CDC-85), metronidazole-resistant; test: Minimum lethal concentration against Trichomonas vaginalis, multiwell plate assay, ATCC 50143 (CDC-85); type: cell-based
# Description: (§3) Preliminary in vitro evaluation of HETA and other compounds against isolates of Trichomonas vaginalis was done.
# (§4) Values are expressed as μg of compound per ml of medium required to inhibit growth and motility of the parasite in a multiwell plate assay as described by Meingassner, Mieth, Czok, Lindmark and Muller (1978) Antimicrob. Agents and Chemother. 13, 1-3. The present drug used for treatment--metronidazole (Flagyl®) is included for comparison. Strain ATCC 50143 (CDC-85) was refractory to chemotherapeutic dose levels of metronidazole. (ND=not done).
# [9] = test system: Trichomonas vaginalis ATCC 3001; test: Minimum lethal concentration against Trichomonas vaginalis, multiwell plate assay, ATCC 3001; type: cell-based
# Description: as §3, §4
# P. falciparum = test: In vitro antimalarial activity of HETA; type: cell-based, Plasmodium falciparum; conditions: for growth of the microorganism inhibited in an in vitro screen: P. falciparum in vitro screen
# [10] = test system: EATRO 110 strain of T. b. brucei; test: Bloodstream forms of African trypanosomes grown in vitro, EATRO 110; type: cell-based; conditions: day 4
# Description: (§5) Cultures were initiated directly from infected mouse blood into Falcon 24 well plates containing 1 ml of Iscoves modified Dulbecco's medium plus 20% horse serum, 2 mM pyruvate, 2 mM glutamine, and 0.2 uM mercaptoethanol. Initial cell counts were 2.5-5.0×10^5 /ml. Plates were incubated at 37 C. in 5 percent CO2. HETA was dissolved in the medium and filter sterilized. One half the volume of each well was replaced with fresh medium each day.
# (§6) Cell counts were made daily. Data are given as percent inhibition of growth as determined by hemocytometer counts on day 4 as compared to control cultures without drug.
# (§7) In Table 2, EATRO 110 is a strain of T. b. brucei; and KETRI 2002, and KETRI 243 are T. b. rhodesiense clinical isolates.
# [11] = test system: KETRI 2002 T. b. rhodesiense clinical isolate; test: Bloodstream forms of African trypanosomes grown in vitro, KETRI 2002; type: cell-based; conditions: day 4
# Description: as §5, §6, §7
# [12] = test system: T. b. brucei LAB 110 EATRO; test: In vivo antitrypanosomal activity, LAB EATRO mouse infection model; conditions: miniosmotic pump
# Description: ^a Animals were treated with surgically implanted miniosmotic pumps
# loaded as per manufacturers instructions with MTA, HETA or MFETA suspende
# [13] = test system: KETRI 243 T. b. rhodesiense clinical isolate; test: Bloodstream forms of African trypanosomes grown in vitro, KETRI 243; type: cell-based; conditions: day 4
# Description: as §5, §6, §7
# T1 sequence (Q57XS4 entry or part of it): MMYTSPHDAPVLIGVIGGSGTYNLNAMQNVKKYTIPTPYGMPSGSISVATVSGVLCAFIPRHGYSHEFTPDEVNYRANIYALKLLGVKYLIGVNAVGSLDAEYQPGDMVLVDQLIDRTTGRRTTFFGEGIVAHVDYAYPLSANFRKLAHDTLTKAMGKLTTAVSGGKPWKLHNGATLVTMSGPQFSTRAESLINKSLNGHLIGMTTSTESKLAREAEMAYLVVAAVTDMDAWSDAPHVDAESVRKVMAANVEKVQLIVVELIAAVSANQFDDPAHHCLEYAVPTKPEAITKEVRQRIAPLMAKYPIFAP
structure (smiles),measurement,setting,value
N=C(N)c1ccc(N=NNc2ccc(C(=N)N)cc2)cc1 [BERENIL],IC50,[1]; Trypanosoma brucei,0.2 µM
"Nc1ncnc2c1ncn2[C@@H]1O[C@H](CSCCBr)[C@@H](O)[C@H]1O [BETA, 5'-deoxy-5'-(bromoethylthio)adenosine]",IC50,[2],25 ± 10 µM
same,IC50,[3],250 ± 50 µM
same,Percent Control Activity,"[4]; +50 mM PO4, 200 μM substrate",88.8%
same,Percent Control Activity,"[4]; No PO4, 200 μM substrate",120%
same,IC50,[5],150 µM
same,IC50,[1],0.5 µM
same,Ki,[6],6.5 µM
same,Substrate (% Control),[6],38 % Control
same,IC50,[7],150 µM
"Nc1ncnc2c1ncn2[C@@H]1O[C@H](CSCCCl)[C@@H](O)[C@H]1O [CETA, 5'-deoxy-5'-(chloroethylthio)adenosine]",Minimum lethal concentration (MLC),"[8]; ATCC 50143, 24 h",187.5 µg/mL
same,Minimum lethal concentration (MLC),"[8]; ATCC 50143, 48 h",11.7 µg/mL
same,activity against metronidazole(Flagyl)-resistant strain CDC-85,"[8]; CDC-85 strain, preliminary in vitro evaluation",active
same,IC50,[2],30 ± 20 µM
same,IC50,[3],240 ± 90 µM
same,Minimum lethal concentration (MLC),"[9]; ATCC 3001, 24 h",93.7 µg/mL
same,Minimum lethal concentration (MLC),"[9]; ATCC 3001, 48 h",23.4 µg/mL
same,Percent Control Activity,"[4]; +50 mM PO4, 200 μM substrate",60%
same,Percent Control Activity,"[4]; No PO4, 200 μM substrate",94.4%
same,IC50,[5],250 µM
same,IC50,[1],2.5 µM
same,Ki,[6],12 µM
same,Substrate (% Control),[6],35 % Control
same,IC50,[7],200 µM
"CCSC[C@H]1O[C@@H](n2cnc3c(N)ncnc32)[C@H](O)[C@@H]1O [ETA, reference compound]",IC50,[2]; Homo sapiens,20 ± 10 µM
same,growth of the microorganism inhibited in an in vitro screen,P. falciparum,inhibited
same,IC50,[3]; Homo sapiens,200 ± 100 µM
same,Percent Control Activity,"[4]; +50 mM PO4, 200 μM substrate",76.2%
same,Percent Control Activity,"[4]; No PO4, 200 μM substrate",100%
same,IC50,[5]; Mus musculus,800 ± 100 µM
same,IC50,[1]; Trypanosoma brucei,138 µM
same,Substrate (% Control),[6],95 % Control
same,IC50,[7]; Mus musculus,250 ± 100 µM
"Nc1ncnc2c1ncn2[C@@H]1O[C@H](CSCCO)[C@@H](O)[C@H]1O [HETA, 5'-deoxy-5'-(hydroxyethylthio)adenosine]",percent inhibition of growth,[10]; 0.1 um HETA,0%
same,percent inhibition of growth,[10]; 0.5 um HETA,44%
same,percent inhibition of growth,[10]; 1.0 um HETA,59%
same,percent inhibition of growth,[10]; 2.25 um HETA,70%
same,IC50,[2]; Homo sapiens,40 µM
same,percent inhibition of growth,[11]; 0.1 um HETA,0%
same,percent inhibition of growth,[11]; 0.5 um HETA,0%
same,percent inhibition of growth,[11]; 1.0 um HETA,15%
same,percent inhibition of growth,[11]; 2.25 um HETA,60%
same,growth of the microorganism inhibited in an in vitro screen,P. falciparum,inhibited
same,IC50,"P. falciparum; Plasmodium falciparum, P. falciparum in vitro",~22 µM
same,% Cured,"[12]; 25 mg/kg/day, 7 days",73%
same,MSD (mean survival in days of animals dying of infection),"[12]; 25 mg/kg/day, 7 days",15.3 days
same,Number Cured Total,"[12]; 25 mg/kg/day, 7 days",11/15
same,% Cured,"[12]; 50 mg/kg/day, 7 days",68%
same,MSD (mean survival in days of animals dying of infection),"[12]; 50 mg/kg/day, 7 days",14.5 days
same,Number Cured Total,"[12]; 50 mg/kg/day, 7 days",17/25
same,% Cured,"[12]; 50 mg/kg/day, 14 days",60%
same,MSD (mean survival in days of animals dying of infection),"[12]; 50 mg/kg/day, 14 days",18.1 days
same,Number Cured Total,"[12]; 50 mg/kg/day, 14 days",9/15
same,% Cured,"[12]; 100 mg/kg/day, 7 days",87%
same,MSD (mean survival in days of animals dying of infection),"[12]; 100 mg/kg/day, 7 days",26.0 days
same,Number Cured Total,"[12]; 100 mg/kg/day, 7 days",13/15
same,% Cured,"[12]; 150 mg/kg/day, 7 days",90%
same,MSD (mean survival in days of animals dying of infection),"[12]; 150 mg/kg/day, 7 days",14.5 days
same,Number Cured Total,"[12]; 150 mg/kg/day, 7 days",18/20
same,IC50,[3]; Homo sapiens,100 µM
same,activity against the C1-NIH strain,"[9]; C1-NIH strain, preliminary in vitro evaluation",displays activity
same,percent inhibition of growth,[13]; 0.1 um HETA,0%
same,percent inhibition of growth,[13]; 0.5 um HETA,0%
same,percent inhibition of growth,[13]; 1.0 um HETA,0%
same,percent inhibition of growth,[13]; 2.25 um HETA,0%
same,Percent Control Activity,"[4]; +50 mM PO4, 200 μM substrate",85%
same,Percent Control Activity,"[4]; No PO4, 200 μM substrate",100%
same,metabolism by T. b. brucei MTA phosphorylase,[4]; compared with MTA,as effectively as MTA itself
same,IC50,[5]; Mus musculus,1000 µM
same,IC50,[1]; Trypanosoma brucei,0.5 µM
same,Ki,"[6]; mouse liver MTA phosphorylase, read-out: K1",26 µM
same,Substrate (% Control),[6],34 % Control
same,IC50,[7]; Mus musculus,500 µM
